According to patent publication US20160274087A1, “SCREENING ASSAY FOR AGENTS THAT INFLUENCE BETA CELL NUMBER AND/OR PHENOTYPE” (VRIJE UNIVERSITEIT BRUSSEL, priority 2013, published 2016):

How the values were obtained:
rat beta cells [1] = assay: Beta cell viability / cell death (propidium iodide assay); format: cell-based; settings: LOPAC screen at 1 μM; adult rat beta cells; day 6; control medium 97
Description: Numbers of living beta cells were obtained by subtracting the PI-positive cell numbers from the Ho-positive cell numbers, and correcting for the percent insulin-negative cells, as determined following insulin-immunofluorescence staining. They were expressed as percent of the numbers on day 1. […] To detect beta cells that underwent two successive cycles, cells were sequentially exposed to two different thymidine-analogs, first EdU from day 3 to 6, and then BrdU (100 μmol/l) from day 7 to 10, with a 24-hour label-free period in between. EdU-positive (EdU^+) nuclei were detected with the Click-iT Assay kit (Invitrogen), while BrdU-positive (BrdU^+) nuclei were identified with anti-BrdU antibody.
Absolute number of cells was determined by whole-well imaging using the BD-PathwayBioimager855 (BD-Biosciences). IPLab and AttoVision software packages (BD-Biosciences) were used for image background subtraction, segmentation and quantification.
Freshly purified beta cells were cultured in control medium for 24 h prior to the addition of the LOPAC test compounds (day 1). The culture medium was refreshed on day 3 and the cells were then cultured further with 5-ethynyl-2′-deoxyuridine (EdU; 10 μM) up to day 6. […] Thus, a compound is considered a hit only if it increases the percent EdU incorporation to above three standard deviation of the plate-averaged percent EdU incorporation.

rat beta cells [2] = assay: Glucose utilization and oxidation by isolated beta cells; format: cell-based; settings: 6-day HC treatment
Experimental: FIG. 9: Glucose utilization and oxidation by isolated beta cells after treatment with HC. Purified rat beta cells were cultured for six days in control medium (white squares) or with HC (black triangles) at 10 mM glucose. Glucose utilization (A) was determined by the rate of D-(5-^3H)glucose conversion into ^3H2O and glucose oxidation (B) by that of D-(U-^14C)glucose into ^14CO2 during a 2 h incubation period at the indicated concentrations of glucose without HC. Values represent means±SEM, n=6; *, p<0.05 versus control.
Because GC signaling controls metabolic processes including glucose metabolism and we have previously reported that glucose regulates rat beta cell numbers through effects on beta cell survival and proliferation (Assefa et al., 2014)(Example 1), we investigated whether HC-induced beta cell proliferation is associated with a change in glucose metabolism. First, the metabolic effect of a 6-day treatment with HC was analyzed by 2 h glucose utilization and oxidation rates at different glucose concentrations. […] Further, HC treatment doubles the rates of both utilization and oxidation at 10 mM glucose as compared to those in control cells (p<0.05).

C[C@]12CCC(=O)C=C1CC[C@@H]1[C@@H]2[C@@H](O)C[C@@]2(C)[C@H]1CC[C@]2(O)C(=O)CO [Hydrocortisone, hydrocortisone]
Percent viable cells (rat beta cells [1]): 97% | rates of glucose utilization and oxidation compared to control cells (rat beta cells [2]; 10 mM glucose): doubles | increase of glucose utilization and oxidation over control cells (rat beta cells [2]; 20 mM glucose): 50%
